Read-outs that look alike come from different tables or passages of the source.
Key:
[1] = system: urea cycle genes; assay: RNA-seq of primary human hepatocytes, compounds that modulate multiple urea cycle-related genes; type: cell-based; conditions: primary human hepatocytes, RNA-seq; for Up-regulated Genes: urea cycle-related genes significantly increased (Table 10)
Procedure: To identify small molecules that modulate urea cycle enzymes, primary human hepatocytes were prepared as a monoculture, and at least one small molecule compound was applied to the cells.
RNA-seq was performed to determine the effects of the compounds on the expression of urea cycle enzymes in hepatocytes. Fold change was calculated by dividing the level of expression in the cell system that had been perturbed by the level of expression in an unperturbed system. Changes in expression having a p-value ≤0.05 were considered significant.
Significance was defined as an FPKM ≥1, a log 2 (fold change) ≥0.5, and a q-value of ≤0.05 for selected gene target.

[2] = system: ARG1; assay: RNA-seq of compound-treated primary human hepatocytes, ARG1 expression; type: cell-based; conditions: primary human hepatocytes; for Relative ARGI level vs Untreated (±Standard Deviation): triplicate (Table 17, FIG. 9)
[3] = system: ASS1; assay: RNA-seq of compound-treated primary human hepatocytes, ASS1 expression; type: cell-based
[4] = system: NAGS; type: cell-based, human; conditions: for Relative NAGS level vs Untreated (±Standard Deviation): triplicate (Table 21, FIG. 13)
[5] = system: SLC25A15; assay: RNA-seq of compound-treated primary human hepatocytes, SLC25A15 expression; type: cell-based; conditions: for Fold change (Log 2) vs untreated, SLC25A15 expression: RNA-seq (Table 8)
[6] = system: CPS1; assay: RNA-seq of compound-treated primary human hepatocytes, CPS1 expression; type: cell-based; conditions: primary human hepatocytes; for Relative CPS1 level vs Untreated (±Standard Deviation): triplicate (Table 19, FIG. 11)
[7] = 3 μM, primary human hepatocytes
[8] = 10 μM, primary human hepatocytes

`N#CCNC(=O)c1ccc(-c2ccnc(Nc3ccc(N4CCOCC4)cc3)n2)cc1` [Momelotinib] was tested, and the “number of urea cycle genes whose expression was significantly up-regulated” value [1] was “three” and the “Up-regulated Genes” value [1] was “CPS1, OTC, ARG1”.

`COc1cc(Nc2ncc(F)c(Nc3ccc4c(n3)N(COP(=O)(O)O)C(=O)C(C)(C)O4)n2)cc(OC)c1OC` [R788 (fostamatinib disodium hexahydrate), fostamatinib disodium hexahydrate] was tested, and the “number of urea cycle genes whose expression was significantly up-regulated” value [1] was “three” and the “Up-regulated Genes” value [1] was “CPS1, ARG1, SLC25A15”.

With `CC(=O)CC(c1ccccc1)c1c(O)c2ccccc2oc1=O` (centres unmarked) [wafarin] the “Relative ARGI level vs Untreated (±Standard Deviation)” value ([2]; 10 μM) was 1.33 ± 0.62.

For `CCn1c(=O)c(-c2cc[nH]n2)cc2c(C)nc(N)nc21` [Voxtalisib], the “Relative ASS1 level vs Untreated (±Standard Deviation)” value ([3]; 10 μM, primary human hepatocytes, triplicate (Table 15, FIG. 7)) was 1.43 ± 0.13, the “Relative NAGS level vs Untreated (±Standard Deviation)” value ([4]; 0.3 μM, primary human hepatocytes) was 1.35 ± 0.04 and the “Relative NAGS level vs Untreated (±Standard Deviation)” value [4, 7] was 1.33 ± 0.15. The “Relative NAGS level vs Untreated (±Standard Deviation)” value [4, 8] was 1.78 ± 0.04, the “Relative ARGI level vs Untreated (±Standard Deviation)” value ([2]; 3 μM) was 1.34 ± 0.16 and the “Relative ARGI level vs Untreated (±Standard Deviation)” value ([2]; 10 μM) was 1.48 ± 0.18.

`COc1nc(N)nc2c1ncn2[C@@H]1O[C@H](COP(=O)(N[C@@H](C)C(=O)OCC(C)(C)C)Oc2cccc3ccccc23)[C@@H](O)[C@@]1(C)O` (some centres unmarked) [bms-986094 (inx-189)] was tested, and the “Fold change (Log 2) vs untreated, SLC25A15 expression” value ([5]; primary human hepatocytes) was 1.18 Log 2.

For `O=C1NC(=O)/C(=C/c2cccc(C(F)(F)F)c2)S1` [SMI-4a], the “Fold change (Log 2) vs untreated, ASS1 expression” value ([3]; primary human hepatocytes, RNA-seq (Table 4)) was 0.69 Log 2 and the “Fold change (Log 2) vs untreated, NAGS expression” value [4] was 1.25 Log 2.

`Cc1ccc(F)c(NC(=O)Nc2ccc(-c3cccc4[nH]nc(N)c34)cc2)c1` [Linifanib] was tested, and the “Relative NAGS level vs Untreated (±Standard Deviation)” value [4, 7] was 1.32 ± 0.04.

With `C[C@]12C[C@H](O)[C@H]3[C@@H](CCC4=CC(=O)CC[C@@]43C)[C@@H]1CC[C@@H]2C(=O)CO` [Corticosterone] the “Fold change (Log 2) vs untreated, SLC25A15 expression” value ([5]; primary human hepatocytes) was 0.96 Log 2.

For `CCN(CC)CCCCNc1ncc2cc(-c3cc(OC)cc(OC)c3)c(NC(=O)NC(C)(C)C)nc2n1` [PD173074], the “Relative CPS1 level vs Untreated (±Standard Deviation)” value ([6]; 3 μM) was 1.35 ± 0.03, the “Relative NAGS level vs Untreated (±Standard Deviation)” value [4, 8] was 1.30 ± 0.31 and the “Relative SLC25A15 level vs Untreated (±Standard Deviation)” value ([5]; 3 μM, primary human hepatocytes, triplicate (Table 24, FIG. 16A-B)) was 1.30 ± 0.12.

`Cc1cc(C(=O)NOCCO)c(Nc2ccc(I)cc2F)n(C)c1=O` [AZD8330] was tested, and the “Relative CPS1 level vs Untreated (±Standard Deviation)” value ([6]; 0.3 μM) was 1.33 ± 0.03 and the “Relative CPS1 level vs Untreated (±Standard Deviation)” value ([6]; 3 μM) was 1.60 ± 0.24.

In the case of `N#CC(c1ccnc(OCc2ccc(CN3CCOCC3)cc2)n1)c1nc2ccccc2s1` (centres unmarked) [Bentamapimod], the “Relative ASS1 level vs Untreated (±Standard Deviation)” value ([3]; 10 µM) is reported as 1.90 ± 0.22.

With `C=C1/C(=C\C=C2/CCC[C@]3(C)[C@@H]([C@H](C)CCCC(C)(C)O)CC[C@@H]23)C[C@@H](O)C[C@@H]1O` [Calcitriol] the “Fold change (Log 2) vs untreated, NAGS expression” value ([4]; primary human hepatocytes, RNA-seq (Table 6)) was 1.2 Log 2.

`O=C(NCCCNc1nc(Nc2cccc(NC(=O)N3CCCC3)c2)ncc1I)c1cccs1` [BX795] was tested, and the “Relative CPS1 level vs Untreated (±Standard Deviation)” value ([6]; 3 μM) was 1.75 ± 1.03, the “Relative ARGI level vs Untreated (±Standard Deviation)” value ([2]; 3 μM) was 1.33 ± 0.43 and the “Relative ARGI level vs Untreated (±Standard Deviation)” value ([2]; 10 μM) was 1.34 ± 0.41.

With `[H]/N=C(/N)N/C(=N/[H])NCCc1ccccc1` [Phenformin] the “Fold change (Log 2) vs untreated, NAGS expression” value [4] was 1.38 Log 2.

`CS[C@H]1SC[C@H]2C(=O)N(C)[C@@H](C(C)C)C(=O)OC[C@@H](NC(=O)c3cnc4ccccc4n3)C(=O)N[C@@H](C)C(=O)N(C)[C@@H]1C(=O)N(C)[C@@H](C(C)C)C(=O)OC[C@@H](NC(=O)c1cnc3ccccc3n1)C(=O)N[C@@H](C)C(=O)N2C` [Echinomycin] was tested, and the “Increase in SLC25A15 gene expression (qualitative)” value ([5]; Example 11, relative mRNA vs DMSO) was “greatest increase” and the “number of urea cycle genes whose expression was significantly up-regulated” value [1] was “six”.

B1: Wnt3 a (protein, UniProt P56704 19-352, looked up)
Protein Wnt-3a: SYPIWWSLAVGPQYSSLGSQPILCASIPGLVPKQLRFCRNYVEIMPSVAEGIKIGIQECQHQFRGRRWNCTTVHDSLAIFGPVLDKATRESAFVHAIASAGVAFAVTRSCAEGTAAICGCSSRHQGSPGKGWKWGGCSEDIEFGGMVSREFADARENRPDARSAMNRHNNEAGRQAIASHMHLKCKCHGLSGSCEVKTCWWSQPDFRAIGDFLKDKYDSASEMVVEKHRESRGWVETLRPRYTYFKVPTERDLVYYEASPNFCEPNPETGSFGTRDRTCNVSSHGIDGCDLLCCGRGHNARAERRREKCRCVFHWCCYVSCQECTRVYDVHTCK
B1 was tested, and the “Fold change (Log 2) vs untreated, SLC25A15 expression” value ([5]; primary human hepatocytes) was 0.7 Log 2.

B2: GDF10 (BMP3b): member of the BMP family and the TGF-B superfamily (protein, UniProt P55107 369-478, looked up)
Growth/differentiation factor …: QWDEPRVCSRRYLKVDFADIGWNEWIISPKSFDAYYCAGACEFPMPKIVRPSNHATIQSIVRAVGIIPGIPEPCCVPDKMNSLGVLFLDENRNVVLKVYPNMSVDTCACR
In the case of B2, the “CPS1 expression, Fold change (Log 2) vs untreated” value ([6]; RNA-seq) is reported as 1.66 Log 2.

B3: GDF 10 (BMP3b) (protein, UniProt P55107 369-478, looked up)
Growth/differentiation factor …: QWDEPRVCSRRYLKVDFADIGWNEWIISPKSFDAYYCAGACEFPMPKIVRPSNHATIQSIVRAVGIIPGIPEPCCVPDKMNSLGVLFLDENRNVVLKVYPNMSVDTCACR
In the case of B3, the “Fold change (Log 2) vs untreated, ARG1 expression” value ([2]; RNA-seq (Table 7)) is reported as 0.97 Log 2.

Source: patent US11266655B2, “Methods and compositions for treating urea cycle disorders” (Camp4 Therapeutics Corporation, priority 2019, dated 2022)
